Test results published in patent US11111245B2, “Derivatives of N-cycloalkyl/heterocycloalkyl-4-(imidazo[1,2-a]pyridine)pyrimidin-2-amine as therapeutic agents” (Aucentra Therapeutics Pty Ltd, priority 2017, dated 2021).

Key:
Type in all cases: biochemical
CDKs and other kinases [1] = target: T1, CDKs and other kinases (Homo sapiens, UniProt P24941); test: Radiometric kinase assay (Eurofins Pharma Discovery or Reaction Biology Corporation Kinase Profiler); details: CDK2A; for remaining activity at 10 µM: compound at 10 μM, read-out: residual activity (%) at 10 μM CDK2A
T1 construct: other: CDK2A; residual activity (%) at 10 μM CDK2A; compound at 10 μM
Experimental: (§1) Eurofins Pharma Discovery or Reaction Biology Corporation Kinase Profiler services were used to measure inhibition of CDKs and other kinases by radiometric assay. Inhibition of CDK4/D1, CDK6/D3 and CDK9/T1 were also determined in-house using ADP Glo Kinase assays (Promega Corporation, Madison, USA). Briefly, the kinase reaction for CDK4/D1 and CDK6/D3 was performed with kinase reaction buffer ([…] Tris base pH 7.5, 20 mM MgCl2, 0.4 mM DTT), 0.1 mg/ml BSA and RB-CTF substrate (retinoblastoma protein 1 C-terminal fraction). For CDK9/CyclinT1, the kinase reaction was performed with standard assay buffer and Kinase Dilution Buffer and RBER-IRStide substrate. Serial dilutions of 1:3 were prepared for test compounds for 10 concentrations (from 10 μM to 0.5 nM). The kinase reactions were started by addition of ATP, incubated for 40 min at 37° C. and then stopped by adding 10 μL of ADP Glo reagent. After incubation at room temperature in the dark for 40 min, 20 μL of kinase detection reagent was added per well and incubated for 40 min. Luminescence was measured using an EnVision Multilabel plate reader (PerkinElmer, Buckinghamshire, UK). Positive and negative controls were performed in the presence and absence of CDK kinases, respectively. Half-maximal inhibition (IC50) values were calculated using a 4-parameter logistic non-linear regression model with Graphpad prism (Version 6.0). Apparent inhibition constants (Ki) values were calculated from Km (ATP) and IC50 values for the respective kinases.

CDKs and other kinases [2] = target: T2, CDKs and other kinases (Homo sapiens, UniProt P50613); test: as above; details: CDK7H; for remaining activity at 10 µM: compound at 10 μM, read-out: residual activity (%) at 10 μM CDK7H; for Ki: read-out: CDK inhibition, Ki (μM) CDK7H
T2 construct: other: CDK7H; residual activity (%) at 10 μM CDK7H; compound at 10 μM
Experimental: as §1

CDKs and other kinases [3] = target: T3, CDKs and other kinases (Homo sapiens, UniProt P06493); test: as above; details: CDK1B; for remaining activity at 10 µM: compound at 10 μM, read-out: residual activity (%) at 10 μM CDK1B; for Ki: read-out: CDK inhibition, Ki (μM) CDK1B
T3 construct: other: CDK1B; residual activity (%) at 10 μM CDK1B; compound at 10 μM
Experimental: as §1

CDK9/T1 = CDK9/T1 (Homo sapiens, UniProt P50750); test: ADP Glo Kinase assay CDK9/T1; details: CDK9T1; read-out: CDK inhibition, Ki (μM) CDK9T1
Experimental: as §1

CDK4/D1 = CDK4/D1 (Homo sapiens, UniProt P11802); test: ADP Glo Kinase assay CDK4/D1; details: CDK4D1; compound at 10 μM; read-out: residual activity (%) at 10 μM CDK4D1
Experimental: as §1

Chain of CDK9/T1 (P50750 whole entry): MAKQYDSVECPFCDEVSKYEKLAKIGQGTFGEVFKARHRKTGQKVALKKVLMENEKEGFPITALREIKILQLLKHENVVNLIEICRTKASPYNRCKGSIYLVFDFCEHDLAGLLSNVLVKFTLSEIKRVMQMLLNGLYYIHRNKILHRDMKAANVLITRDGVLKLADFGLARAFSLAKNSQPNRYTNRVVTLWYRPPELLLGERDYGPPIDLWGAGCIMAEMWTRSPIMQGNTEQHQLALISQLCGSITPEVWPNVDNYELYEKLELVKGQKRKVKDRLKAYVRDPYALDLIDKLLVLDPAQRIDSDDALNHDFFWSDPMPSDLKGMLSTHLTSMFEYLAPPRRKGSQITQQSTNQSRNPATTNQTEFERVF
Chain of CDK9/T1 (O60563 whole entry partner): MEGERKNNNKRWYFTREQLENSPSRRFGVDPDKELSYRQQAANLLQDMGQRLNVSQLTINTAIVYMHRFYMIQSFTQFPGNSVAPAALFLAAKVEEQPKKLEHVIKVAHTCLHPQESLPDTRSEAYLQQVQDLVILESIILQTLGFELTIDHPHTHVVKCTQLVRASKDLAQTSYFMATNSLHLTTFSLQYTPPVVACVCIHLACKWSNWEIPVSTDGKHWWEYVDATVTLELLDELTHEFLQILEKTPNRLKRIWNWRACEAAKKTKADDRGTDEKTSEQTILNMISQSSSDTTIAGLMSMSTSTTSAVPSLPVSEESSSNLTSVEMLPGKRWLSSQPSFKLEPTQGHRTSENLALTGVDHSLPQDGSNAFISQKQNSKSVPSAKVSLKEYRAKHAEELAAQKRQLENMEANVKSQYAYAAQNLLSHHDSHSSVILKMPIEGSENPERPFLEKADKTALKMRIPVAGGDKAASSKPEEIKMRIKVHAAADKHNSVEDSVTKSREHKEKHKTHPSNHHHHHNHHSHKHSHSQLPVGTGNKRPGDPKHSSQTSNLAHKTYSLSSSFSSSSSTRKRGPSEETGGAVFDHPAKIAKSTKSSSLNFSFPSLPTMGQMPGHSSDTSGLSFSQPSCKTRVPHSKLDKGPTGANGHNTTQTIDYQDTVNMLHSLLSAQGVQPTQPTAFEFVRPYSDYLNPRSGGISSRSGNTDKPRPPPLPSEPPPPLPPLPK
T2 sequence (P50613 whole entry): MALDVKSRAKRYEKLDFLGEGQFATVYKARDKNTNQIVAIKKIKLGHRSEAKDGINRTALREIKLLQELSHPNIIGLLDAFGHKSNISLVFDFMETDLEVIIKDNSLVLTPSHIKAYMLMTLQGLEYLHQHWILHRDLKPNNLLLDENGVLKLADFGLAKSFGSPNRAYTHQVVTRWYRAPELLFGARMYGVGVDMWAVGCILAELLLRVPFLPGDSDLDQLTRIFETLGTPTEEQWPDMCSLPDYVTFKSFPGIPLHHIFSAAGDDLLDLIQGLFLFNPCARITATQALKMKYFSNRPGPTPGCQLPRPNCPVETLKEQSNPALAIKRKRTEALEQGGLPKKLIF
Chain of CDK4/D1 (P11802 whole entry): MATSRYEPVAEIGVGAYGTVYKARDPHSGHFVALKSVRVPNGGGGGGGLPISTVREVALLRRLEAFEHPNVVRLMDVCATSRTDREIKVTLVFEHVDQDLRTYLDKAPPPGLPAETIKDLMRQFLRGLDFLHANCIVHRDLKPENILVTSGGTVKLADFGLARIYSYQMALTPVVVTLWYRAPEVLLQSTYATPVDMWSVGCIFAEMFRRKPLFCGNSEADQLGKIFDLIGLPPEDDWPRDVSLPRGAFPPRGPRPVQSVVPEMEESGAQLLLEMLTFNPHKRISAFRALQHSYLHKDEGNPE
Chain of CDK4/D1 (P24385 whole entry partner): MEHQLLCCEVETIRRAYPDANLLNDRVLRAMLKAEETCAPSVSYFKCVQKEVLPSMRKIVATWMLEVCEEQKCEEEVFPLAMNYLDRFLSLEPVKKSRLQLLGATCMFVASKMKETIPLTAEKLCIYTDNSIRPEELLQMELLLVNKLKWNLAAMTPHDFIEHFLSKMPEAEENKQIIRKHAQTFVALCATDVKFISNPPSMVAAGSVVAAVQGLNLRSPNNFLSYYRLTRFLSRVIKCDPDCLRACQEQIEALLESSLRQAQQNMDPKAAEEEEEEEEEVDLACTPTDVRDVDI
T3 sequence (P06493 whole entry): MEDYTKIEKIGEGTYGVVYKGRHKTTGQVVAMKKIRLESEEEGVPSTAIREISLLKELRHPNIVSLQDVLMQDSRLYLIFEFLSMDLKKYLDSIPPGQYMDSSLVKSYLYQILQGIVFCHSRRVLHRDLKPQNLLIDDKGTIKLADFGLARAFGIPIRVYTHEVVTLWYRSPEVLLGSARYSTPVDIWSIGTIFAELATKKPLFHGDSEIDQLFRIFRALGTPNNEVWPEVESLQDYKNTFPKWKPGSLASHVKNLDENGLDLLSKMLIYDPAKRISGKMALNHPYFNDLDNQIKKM

Row | Structure (SMILES) | remaining activity at 10 µM (CDKs and other kinases [1]) | remaining activity at 10 µM (CDKs and other kinases [2]) | remaining activity at 10 µM (CDKs and other kinases [3]) | Ki (CDK9/T1) | remaining activity at 10 µM (CDK4/D1) | Ki (CDKs and other kinases [1]; read-out: CDK inhibition, Ki (μM) CDK2A) | Ki (CDKs and other kinases [3]) | Ki (CDKs and other kinases [2])
1 | CN[C@H]1CC[C@H](Nc2ncc(C)c(-c3cnc4ccc(-c5ccccc5)cn34)n2)CC1 [Compound 133, (1r,4r)-N^1-Methyl-N^4-(5-methyl-4-(6-phenylimidazo[1,2-a]pyridin-3-yl)pyrimidin-2-yl)cyclohexane-1,4-diamine] | 40% | 10% | 22% | 0.14 µM | 60% | – | – | –
2 | COCCN[C@H]1CC[C@H](Nc2ncc(C)c(-c3cnc4ccc(-c5ccccc5)cn34)n2)CC1 [Compound 129, (1r,4r)-N^1-(2-Methoxyethyl)-N^4-(5-methyl-4-(6-phenylimidazo[1,2-a]pyridin-3-yl)pyrimidin-2-yl) cyclohexane-1,4-diamine] | 0% | 18% | 42% | 0.12 µM | 32% | – | – | –
3 | Cc1cnc(N[C@H]2CC[C@H](N)CC2)nc1-c1cnc2cc(F)c(-c3ccccc3)cn12 [Compound 159, (1r,4r)-N^1-(4-(7-Fluoro-6-phenylimidazo[1,2-a]pyridin-3-yl)-5-methylpyrimidin-2-yl)cyclohexane-1,4-diamine] | 11% | 20% | 31% | 0.061 µM | 43% | – | – | –
4 | CCS(=O)(=O)N1CCC(Nc2ncc(F)c(-c3cnc4ccc(-c5ccccc5)cn34)n2)CC1 [Compound 163, N-(1-(Ethylsulfonyl)piperidin-4-yl)-5-fluoro-4-(6-phenylimidazo[1,2-a]pyridin-3-yl)pyrimidin-2-amine] | 0% | 5% | – | 4.57 µM | 61% | – | – | –
5 | Fc1cnc(NC2CCNCC2)nc1-c1cnc2cc(-c3ccccc3)ccn12 [Compound 170, 5-Fluoro-4-(7-phenylimidazo[1,2-a]pyridin-3-yl)-N-(piperidin-4-yl)pyrimidin-2-amine] | 7% | 18% | – | > 5 µM | 5% | – | – | –
6 | O[C@H]1CC[C@H](Nc2ncc(Cl)c(-c3cnc4ccc(-c5cccnc5)cn34)n2)CC1 [Compound 166, (1r,4r)-4-((5-Chloro-4-(6-(pyridin-3-yl)imidazo[1,2-a]pyridin-3-yl)pyrimidin-2-yl)amino)cyclohexan-1-ol] | 8% | 33% | – | 1.28 µM | 54% | – | – | –
7 | O[C@H]1CC[C@H](Nc2ncc(Cl)c(-c3cnc4ccc(-c5ccc(F)cc5)cn34)n2)CC1 [Compound 165, (1r,4r)-4-((5-Chloro-4-(6-(4-fluorophenyl)imidazo[1,2-a]pyridin-3-yl)pyrimidin-2-yl)amino)cyclohexan-1-ol] | 51% | 24% | – | 0.93 µM | 61% | – | – | –
8 | CN1CCC(N[C@H]2CC[C@H](Nc3ncc(F)c(-c4cnc5ccc(-c6ccccc6)cn45)n3)CC2)CC1 [Compound 160, (1r,4r)-N^1-(5-Fluoro-4-(6-phenylimidazo[1,2-a]pyridin-3-yl)pyrimidin-2-yl)-N^4-(1-methylpiperidin-4-yl) cyclohexane-1,4-diamine] | 7% | – | 3% | 0.014 µM | 0% | – | – | 0.099 µM
9 | Fc1cnc(N[C@H]2CC[C@H](NC3CCOCC3)CC2)nc1-c1cnc2ccc(-c3ccccc3)cn12 [Compound 161, (1r,4r)-N^1-(5-fluoro-4-(6-phenylimidazo[1,2-a]pyridin-3-yl)pyrimidin-2-yl)-N^4-(tetrahydro-2H-pyran-4-yl) cyclohexane-1,4-diamine] | 6% | – | – | 0.016 µM | 3% | – | 0.074 µM | 0.094 µM
10 | Cc1cnc(NC2CCC(N3CCNC(=O)C3)CC2)nc1-c1cnc2ccc(Nc3cncnc3)cn12 (stereo not shown) [Compound 168, 4-(4-((5-Methyl-4-(6-(pyrimidin-5-ylamino)imidazo [1,2-a]pyridin-3-yl)pyrimidin-2-yl)amino)cyclohexyl) piperazin-2-one] | 11% | 55% | – | 0.181 µM | 22% | – | – | –
11 | CS(=O)(=O)N1CCC(Nc2ncc(F)c(-c3cnc4cc(-c5ccccc5)ccn34)n2)CC1 [Compound 171, 5-Fluoro-N-(1-(methylsulfonyl)piperidin-4-yl)-4-(7-phenylimidazo[1,2-a]pyridin-3-yl)pyrimidin-2-amine] | 35% | 65% | – | > 5 µM | 47% | – | – | –
12 | CNC(=O)N[C@H]1CC[C@H](Nc2ncc(C)c(-c3cnc4ccc(-c5ccccc5)cn34)n2)CC1 [Compound 169, 1-Methyl-3-((1r,4r)-4-((5-methyl-4-(6-phenylimidazo [1,2-a]pyridin-3-yl)pyrimidin-2-yl)amino)cyclohexyl) urea] | 31% | 35% | – | 1.88 µM | 81% | – | – | –

Results, then the compound that gave them:

Row | remaining activity at 10 µM (CDKs and other kinases [1]) | remaining activity at 10 µM (CDKs and other kinases [2]) | remaining activity at 10 µM (CDKs and other kinases [3]) | Ki (CDK9/T1) | remaining activity at 10 µM (CDK4/D1) | Ki (CDKs and other kinases [1]; read-out: CDK inhibition, Ki (μM) CDK2A) | Ki (CDKs and other kinases [3]) | Ki (CDKs and other kinases [2]) | Structure (SMILES)
13 | – | 30% | – | 0.011 µM | 15% | 0.064 µM | 0.532 µM | – | Cc1cnc(N[C@H]2CC[C@H](N3CCC3)CC2)nc1-c1cnc2ccc(Nc3cncnc3)cn12 [Compound 141, 3-(2-(((1r,4r)-4-(Azetidin-1-yl)cyclohexyl)amino)-5-methylpyrimidin-4-yl)-N-(pyrimidin-5-yl)imidazo [1,2-a]pyridin-6-amine]
14 | 22% | 28% | 43% | 0.12 µM | 11% | – | – | – | Cc1cnc(N[C@H]2CC[C@H](N)CC2)nc1-c1cnc2ccc(Nc3ccncc3)cn12 [Compound 134, (1r,4r)-N^1-(5-Methyl-4-(6-(pyridin-4-ylamino)imidazo [1,2-a]pyridin-3-yl)pyrimidin-2-yl)cyclohexane-1,4-diamine]
15 | 0% | 39% | 34% | 0.045 µM | 32% | – | – | – | COc1ccc(Nc2ccc3ncc(-c4nc(N[C@H]5CC[C@H](N)CC5)ncc4C)n3c2)cn1 [Compound 127, (1r,4r)-N^1-(4-(6-((6-Methoxypyridin-3-yl)amino)imidazo [1,2-a]pyridin-3-yl)-5-methylpyrimidin-2-yl)cyclohexane-1,4-diamine]
16 | 4% | 49% | – | 0.49 µM | 66% | – | – | – | COc1ccc(-c2ccc3ncc(-c4nc(N[C@H]5CC[C@H](O)CC5)ncc4Cl)n3c2)cn1 [Compound 167, (1r,4r)-4-((5-Chloro-4-(6-(6-methoxypyridin-3-yl)imidazo[1,2-a]pyridin-3-yl)pyrimidin-2-yl)amino) cyclohexan-1-ol]
17 | 2% | 21% | – | 0.005 µM | 6% | – | – | – | CNC(=O)N[C@H]1CC[C@H](Nc2ncc(C)c(-c3cnc4ccc(Nc5cncnc5)cn34)n2)CC1 [Compound 172, 1-Methyl-3-((1r,4r)-4-((5-methyl-4-(6-(pyrimidin-5-ylamino)imidazo[1,2-a]pyridin-3-yl)pyrimidin-2-yl)amino)cyclohexyl)urea]
